In ChEMBL document CHEMBL5331131, “Discovery of Acyl-Indole Derivatives as Pan-Serotype Dengue Virus NS4B Inhibitors” (J Med Chem, 2023):
Converted amounts (≈) assume the structure as drawn.

Columns and labels:
[1] = Cytotoxicity against african green monkey Vero cells by ATPlite cell viability luminescence assay; type: toxicity, cell-based; conditions: chlorocebus sabaeus
[2] = tested on: dengue virus type 4; assay: Antiviral activity against DENV-4 H241 infected in african green monkey Vero cells incubated for 24 hrs measured after 3 days post infection; type: functional, organism-based
[3] = tested on: dengue virus type 3; assay: Antiviral activity against DENV-3 H87 infected in african green monkey Vero cells incubated for 24 hrs measured after 3 days post infection; type: functional, organism-based
[4] = Microsomal stability in rat liver microsomes assessed as intrinsic clearance preincubated for 5 mins followed by NADPH addition measured upto 60 mins by LC-MS/MS analysis; type: ADME, Microsome; conditions: time < 65 min, read-out: CLH
[5] = Microsomal stability in mouse liver microsomes assessed as intrinsic clearance preincubated for 5 mins followed by NADPH addition measured upto 60 mins by LC-MS/MS analysis; type: ADME, Microsome; conditions: time < 65 min, read-out: CLH
[6] = tested on: dengue virus type 2; assay: Antiviral activity against DENV-2 16681 expressing eGFP infected in african green monkey Vero cells incubated with cells for 24 hrs followed by viral infection measured after 3 days by laser microscopic analysis; type: functional, organism-based
[7] = Microsomal stability in human liver microsomes assessed as intrinsic clearance preincubated for 5 mins followed by NADPH addition measured upto 60 mins by LC-MS/MS analysis; type: ADME, Microsome; conditions: time < 65 min, read-out: CLH
[8] = Clearance in Sprague-Dawley rat at 2.5 mg/kg, iv measured upto 24 hrs by LC-MS/MS analysis; type: ADME, organism-based; conditions: in vivo
[9] = tested on: dengue virus type 2; assay: Antiviral activity against DENV-2 16681 infected in african green monkey Vero cells incubated for 24 hrs measured after 3 days post infection; type: functional, organism-based; conditions: Dengue virus, 16681, Vero
[10] = tested on: dengue virus type 1; assay: Antiviral activity against DENV-1 TC974#666 infected in african green monkey Vero cells incubated for 24 hrs measured after 3 days post infection; type: functional, organism-based; conditions: TC974#666, Vero
[11] = Clearance in CD-1 mouse at 2.5 mg/kg, iv measured for 0.12 to 24 hrs by LC-MS/MS analysis; type: ADME, organism-based; conditions: in vivo, time 0.12-24 hrs
[12] = Cmax in CD-1 mouse at 3 mg/kg, po measured for 0.5 to 24 hrs by LC-MS/MS analysis; type: ADME, organism-based; parameters: time 0.5-24 hrs, dose 3 mg/kg, route po; conditions: in vivo
[13] = Cmax in CD-1 mouse at 10 mg/kg, po measured for 0.5 to 24 hrs by LC-MS/MS analysis; type: ADME, organism-based; parameters: dose 10 mg/kg, time 0.5-24 hrs, route po; conditions: in vivo
[14] = Oral bioavailability in CD-1 mouse at 30 mg/kg measured for 0.5 to 24 hrs by LC-MS/MS analysis; type: ADME, organism-based; conditions: in vivo, time 0.5-24 hrs
[15] = AUC last in CD-1 mouse at 30 mg/kg, po measured for 0.5 to 24 hrs by LC-MS/MS analysis; type: ADME, organism-based; parameters: time upper 24 hrs, time lower 0.5 hrs, dose 30 mg/kg, route po; conditions: in vivo
[16] = Cmax in CD-1 mouse at 30 mg/kg, po measured for 0.5 to 24 hrs by LC-MS/MS analysis; type: ADME, organism-based; parameters: time upper 24 hrs, dose 30 mg/kg, time lower 0.5 hrs, route po; conditions: in vivo
[17] = AUC last in CD-1 mouse at 3 mg/kg, po measured for 0.5 to 24 hrs by LC-MS/MS analysis; type: ADME, organism-based; parameters: time upper 24 hrs, time lower 0.5 hrs, dose 3 mg/kg, route po; conditions: in vivo
[18] = biological target: Voltage-gated inwardly rectifying potassium channel KCNH2 (Homo sapiens, UniProt Q12809); assay: Displacement of [3H]Dofetilide from human ERG; type: toxicity
Sequence of Voltage-gated inwardly rectifying potassium channel KCNH2 (Q12809 whole entry): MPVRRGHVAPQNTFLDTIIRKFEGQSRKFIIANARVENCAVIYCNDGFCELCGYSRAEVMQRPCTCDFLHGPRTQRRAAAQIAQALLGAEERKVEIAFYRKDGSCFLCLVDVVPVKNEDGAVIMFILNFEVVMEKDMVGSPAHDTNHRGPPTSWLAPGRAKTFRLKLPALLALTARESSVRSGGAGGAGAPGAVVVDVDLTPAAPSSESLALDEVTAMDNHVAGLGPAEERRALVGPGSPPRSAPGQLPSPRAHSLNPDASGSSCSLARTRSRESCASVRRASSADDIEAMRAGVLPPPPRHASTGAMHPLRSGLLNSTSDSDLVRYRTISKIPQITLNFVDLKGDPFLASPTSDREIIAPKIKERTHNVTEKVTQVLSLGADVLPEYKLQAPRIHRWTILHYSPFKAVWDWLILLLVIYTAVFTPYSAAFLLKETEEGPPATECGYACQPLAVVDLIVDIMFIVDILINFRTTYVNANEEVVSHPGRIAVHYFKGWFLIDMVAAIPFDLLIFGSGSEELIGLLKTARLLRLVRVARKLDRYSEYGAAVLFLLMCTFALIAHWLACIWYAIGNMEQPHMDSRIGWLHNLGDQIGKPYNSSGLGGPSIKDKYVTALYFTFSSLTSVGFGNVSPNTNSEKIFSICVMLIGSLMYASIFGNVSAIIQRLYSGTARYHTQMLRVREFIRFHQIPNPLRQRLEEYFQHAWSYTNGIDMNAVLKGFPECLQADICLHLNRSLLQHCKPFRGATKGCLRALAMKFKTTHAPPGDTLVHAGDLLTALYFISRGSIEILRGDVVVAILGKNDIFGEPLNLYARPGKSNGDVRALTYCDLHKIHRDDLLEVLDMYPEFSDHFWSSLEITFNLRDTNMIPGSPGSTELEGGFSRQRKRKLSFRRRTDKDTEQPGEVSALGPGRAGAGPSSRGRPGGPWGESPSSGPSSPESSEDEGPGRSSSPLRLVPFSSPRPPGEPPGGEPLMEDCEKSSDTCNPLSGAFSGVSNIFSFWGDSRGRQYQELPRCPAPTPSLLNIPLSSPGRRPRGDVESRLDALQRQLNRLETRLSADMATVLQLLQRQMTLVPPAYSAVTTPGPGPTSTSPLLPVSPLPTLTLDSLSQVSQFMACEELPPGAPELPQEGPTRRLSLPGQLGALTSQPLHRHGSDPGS

[19] = Volume of distribution at steady state in CD-1 mouse at 2.5 mg/kg, iv measured for 0.12 to 24 hrs by LC-MS/MS analysis; type: ADME, organism-based; conditions: in vivo, time 0.12-24 hrs, read-out: Vdss
[20] = Metabolic stability in human hepatocytes assessed as intrinsic clearance measured per million cells incubated upto 120 mins by MS analysis; type: ADME, cell-based, Hepatocyte; conditions: read-out: CLH
[21] = Cmax in Sprague-Dawley rat at 10 mg/kg, po measured upto 24 to 48 hrs by LC-MS/MS analysis; type: ADME, organism-based; parameters: time upper 48 hrs, dose 10 mg/kg, time lower 24 hrs, route po; conditions: in vivo
[22] = tested on: dengue virus type 2; assay: In vivo antiviral activity against DENV-2/RL infected in AG129 mouse assessed as viral load reduction in plasma administered at 30 mg/kg, po bid for 3 days; type: functional; conditions: time 3 day
[23] = Oral bioavailability in CD-1 mouse at 3 mg/kg measured for 0.5 to 24 hrs by LC-MS/MS analysis; type: ADME, organism-based; conditions: in vivo, time 0.5-24 hrs
[24] = AUC last in Sprague-Dawley rat at 10 mg/kg, po measured upto 24 to 48 hrs by LC-MS/MS analysis; type: ADME, organism-based; parameters: time upper 48 hrs, dose 10 mg/kg, time lower 24 hrs, route po; conditions: in vivo
[25] = Kinetic solubility of the compound in aqueous buffer at pH 7.4 measured after 4 hrs by UPLC/UV analysis; type: physicochemical; conditions: read-out: Kinetic_solubility
[26] = AUC last in CD-1 mouse at 10 mg/kg, po measured for 0.5 to 24 hrs by LC-MS/MS analysis; type: ADME, organism-based; parameters: dose 10 mg/kg, time 0.5-24 hrs, route po; conditions: in vivo
[27] = Volume of distribution at steady state in Sprague-Dawley rat at 2.5 mg/kg, iv measured upto 24 hrs by LC-MS/MS analysis; type: ADME, organism-based; conditions: in vivo, read-out: Vdss
[28] = Oral bioavailability in CD-1 mouse at 10 mg/kg measured for 0.5 to 24 hrs by LC-MS/MS analysis; type: ADME, organism-based; conditions: in vivo, time 0.5-24 hrs
[29] = Half life in CD-1 mouse at 2.5 mg/kg, iv measured by LC-MS/MS analysis; type: ADME, organism-based; conditions: in vivo
[30] = Oral bioavailability in Sprague-Dawley rat at 10 mg/kg measured upto 24 to 48 hrs by LC-MS/MS analysis; type: ADME, organism-based; conditions: in vivo, time 24-48 hrs
[31] = Half life in Sprague-Dawley rat at 2.5 mg/kg, iv measured by LC-MS/MS analysis; type: ADME, organism-based; conditions: in vivo
[32] = tested on: dengue virus type 2; assay: In vivo antiviral activity against DENV-2/RL infected in AG129 mouse assessed as viral load reduction administered at 1 to 30 mg/kg, po bid for 3 days; type: functional, organism-based; conditions: dose 1-30 mg/kg, time 3.0 day
[33] = Cmax in CD-1 mouse at 1 mg/kg, po measured for 0.5 to 24 hrs by LC-MS/MS analysis; type: ADME, organism-based; parameters: dose 1 mg/kg, time 0.5-24 hrs, route po; conditions: in vivo
[34] = AUC last in CD-1 mouse at 1 mg/kg, po measured for 0.5 to 24 hrs by LC-MS/MS analysis; type: ADME, organism-based; parameters: dose 1 mg/kg, time 0.5-24 hrs, route po; conditions: in vivo
[35] = Oral bioavailability in CD-1 mouse at 1 mg/kg measured for 0.5 to 24 hrs by LC-MS/MS analysis; type: ADME, organism-based; conditions: in vivo, time 0.5-24 hrs
[36] = Kinetic solubility of the compound in aqueous buffer at pH 2 measured after 4 hrs by UPLC/UV analysis; type: physicochemical; conditions: read-out: Kinetic_solubility
[37] = Kinetic solubility of the compound in aqueous buffer at pH 4 measured after 4 hrs by UPLC/UV analysis; type: physicochemical; conditions: read-out: Kinetic_solubility
[38] = tested on: dengue virus type 2; assay: In vivo antiviral activity against DENV-2/RL infected in AG129 mouse assessed as viral load reduction administered at 3 to 30 mg/kg, po bid for 3 days; type: functional, organism-based; conditions: dose 3-30 mg/kg, time 3.0 day

Row | SMILES | CC50 [1] [nM] | EC50 ([2]; Dengue virus, H241, Vero) [nM] | EC50 [3] [nM] | microsomal CLint [4] [µL/min/mg] | microsomal CLint [5] [µL/min/mg] | EC50 ([6]; Dengue virus, 16681, Vero) [nM] | microsomal CLint [7] [µL/min/mg] | clearance [8] [mL/min/kg] | EC50 [9] [nM] | EC50 [10] [nM] | clearance [11] [mL/min/kg] | Cmax [21] [ng/mL] | AUC(0-t) [24] [ng·h/mL] | solubility kinetic at 4 h [25] [µM] | Vd [27] [L/kg] | bioavailability [30] [%] | half-life [31] [h] | solubility kinetic at 4 h [36] [µM] | solubility kinetic at 4 h [37] [µM] | further results
1 | COc1cc(NC(C(=O)c2c[nH]c3ccccc23)c2ccccc2)cc(OCCO)c1 (centres undefined) | 21000 | 3900 | 1000 | 37 | 201 | 49 | < 8 | 34.7 | 32 | 180 | 54 | – | – | – | – | – | – | – | – | –
2 | COc1cc(NC(C(=O)c2c[nH]c3cc(F)ccc23)c2ccc(Cl)cc2OC)cc(OCCO)c1 (single isomer, unassigned; (+)) [listing 1 of 2 here] | – | – | 63 | 9 | 32 | – | < 8 | 46.2 | – | 8 | 16.6 | 192 | 2430 | 1 (≈ 0.499 µg/mL) | 10.1 | 69 | 6.4 | – | – | Cmax [12]: 435 ng/mL; Cmax [13]: 1720 ng/mL; EC50 ([2]; vero): 240 nM; bioavailability [14]: 85%; AUC(0-t) [15]: 29500 ng·h/mL; Cmax [16]: 5100 ng/mL; AUC(0-t) [17]: 1410 ng·h/mL; IC50 [18]: 10000 nM; Vd [19]: 2 L/kg; hepatocyte CLint [20]: < 1.9 µL/min/1e6 cells; Activity [22]: 2 log10/ml; bioavailability [23]: 40%; AUC(0-t) [26]: 6030 ng·h/mL; bioavailability [28]: 52%; half-life [29]: 2 h
3 | COc1cc(NC(C(=O)c2c[nH]c3cc(OC)c(C)cc23)c2ccc(Cl)cc2OC)cc(OCCO)c1 (single isomer, unassigned; (+)) | – | 84 | 26 | < 8 | < 8 | – | < 8 | 6.8 | 1 | 4 | 6.3 | 365 | 8390 | 0.2 (≈ 0.105 µg/mL) | 6.8 | 45 | 11.5 | – | – | Activity [32]: Dose-Dependent Effect; Cmax [12]: 345 ng/mL; Cmax [13]: 1760 ng/mL; AUC(0-t) [17]: 4050 ng·h/mL; IC50 [18]: > 10000 nM; Vd [19]: 3.3 L/kg; hepatocyte CLint [20]: < 1.9 µL/min/1e6 cells; Activity [22]: 2.9 log10/ml; bioavailability [23]: 54%; AUC(0-t) [26]: 19100 ng·h/mL; Cmax [33]: 83 ng/mL; bioavailability [28]: 76%; half-life [29]: 6.2 h; AUC(0-t) [34]: 872 ng·h/mL; bioavailability [35]: 35%
4 | COc1cc(NC(C(=O)c2c[nH]c3cc(OC)c(C)cc23)c2ccc(F)cc2OC)cc(OCCO)c1 (single isomer, unassigned; (+)) | 7400 | – | – | < 8 | < 8 | 3 | < 8 | 13.6 | – | – | – | 350 | 4660 | 5 (≈ 2.54 µg/mL) | 6.5 | 40 | 5.7 | 65 (≈ 33.1 µg/mL) | 5 (≈ 2.54 µg/mL) | –
5 | COc1cc(NC(C(=O)c2c[nH]c3cc(F)ccc23)c2ccc(F)cc2OC)cc(OCCO)c1 (centres undefined) | 8400 | 870 | – | 30 | 26 | 4 | < 8 | 39.2 | 9 | – | – | 135 | 1110 | 18 (≈ 8.68 µg/mL) | 7.6 | 26 | 3.2 | 69 (≈ 33.3 µg/mL) | 18 (≈ 8.68 µg/mL) | –
6 | COc1cc(NC(C(=O)c2c[nH]c3c(C)c(Cl)ccc23)c2ccc(F)cc2OC)cc(OCCO)c1 (single isomer, unassigned; (+)) | 4100 | – | – | < 8 | < 8 | 1 | < 8 | 10.7 | – | – | – | 294 | 7600 | < 0.1 | 6.5 | 54 | 7 | 5 (≈ 2.56 µg/mL) | < 0.1 | –
7 | COc1cc(NC(C(=O)c2c[nH]c3cc(F)ccc23)c2ccc(Cl)cc2OC)cc(OCCO)c1 (single isomer, unassigned; (+)) [listing 2 of 2 here] | – | – | – | – | – | – | – | – | – | – | – | – | – | – | – | – | – | – | – | Activity [38]: Dose-Dependent Effect
8 | COc1cc(NC(C(=O)c2c[nH]c3c(C)c(F)ccc23)c2ccc(F)cc2OC)cc(OCCO)c1 (single isomer, unassigned; (+)) | 5300 | – | – | < 8 | < 8 | 2 | < 8 | 16.4 | – | – | – | 573 | 8290 | 2 (≈ 0.993 µg/mL) | 8.5 | 88 | 6.5 | 34 (≈ 16.9 µg/mL) | 3 (≈ 1.49 µg/mL) | –
9 | COc1cc(NC(C(=O)c2c[nH]c3cc(F)ccc23)c2ccc(F)cc2)cc(OCCO)c1 (stereo in doubt) | 13000 | 870 | 420 | < 8 | 26 | – | < 8 | 13.9 | 12 | 49 | 37.1 | 295 | 4370 | – | 7.3 | 40 | 6 | – | – | EC50 ([6]; vero): 15 nM
